Assay results: ChEMBL document CHEMBL1909046, “DrugMatrix in vitro pharmacology data”

Assays:
Neutrophil elastase = molecular target: T1, Neutrophil elastase (Homo sapiens, UniProt P08246); assay type: tissue-based;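 also: inhibition of neutrophil elastase enzyme activity, measured with a p-nitroanilide-linked peptide substrate; in other assays of this panel Not Active means under 50% inhibition at 10 µM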
T1 sequence (P08246 whole entry): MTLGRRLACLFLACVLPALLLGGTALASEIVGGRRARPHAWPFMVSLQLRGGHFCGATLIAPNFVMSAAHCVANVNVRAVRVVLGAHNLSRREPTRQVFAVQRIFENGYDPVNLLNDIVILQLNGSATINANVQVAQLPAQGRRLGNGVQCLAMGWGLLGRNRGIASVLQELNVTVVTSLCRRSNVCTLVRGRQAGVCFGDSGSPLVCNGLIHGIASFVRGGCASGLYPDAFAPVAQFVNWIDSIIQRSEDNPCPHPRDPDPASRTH

Adenosine receptor A1 = molecular target: T2, Adenosine receptor A1 (Homo sapiens, UniProt P30542); assay type: cell membranes, CHO, Membrane; conditions: cho;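 also: radioligand binding assay at the adenosine A1 receptor, with DPCPX serving as the labelled ligand; in other assays of this panel Not Active means under 50% inhibition at 10 µM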
T2 sequence (P30542 whole entry): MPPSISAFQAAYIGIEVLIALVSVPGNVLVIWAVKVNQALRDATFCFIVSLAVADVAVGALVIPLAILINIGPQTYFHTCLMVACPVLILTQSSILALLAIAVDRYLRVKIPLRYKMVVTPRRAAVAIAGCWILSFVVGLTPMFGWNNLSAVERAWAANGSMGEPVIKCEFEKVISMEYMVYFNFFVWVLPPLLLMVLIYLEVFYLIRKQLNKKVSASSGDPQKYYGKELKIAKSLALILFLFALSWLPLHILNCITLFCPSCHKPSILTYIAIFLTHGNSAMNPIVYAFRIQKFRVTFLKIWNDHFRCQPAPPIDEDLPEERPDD

Mu-type opioid receptor = Mu-type opioid receptor (Homo sapiens, UniProt P35372); assay: DRUGMATRIX: Opiate mu (OP3, MOP) radioligand binding (ligand: [3H] Diprenorphine); assay type: cell membranes, CHO-K1, Membrane; conditions: Not Active = under 50% inhibition at 10 µM
[1] = DRUGMATRIX: Sodium/nucleoside co-transporter radioligand binding (ligand: nitrobenzylthioinosine); assay type: cell membranes, Cavia porcellus, Dunkin-Hartley, Cerebral cortex, Membrane; conditions: Not Active = under 50% inhibition at 10 µM
[2] = DRUGMATRIX: Atrial Natriuretic Factor (ANF) radioligand binding (ligand: [125I] ANF (rat)); assay type: cell membranes, Cavia porcellus, Dunkin-Hartley, Adrenal gland, Membrane; conditions: Not Active = under 50% inhibition at 10 µM

Mu-type opioid receptor, sequence (P35372 whole entry): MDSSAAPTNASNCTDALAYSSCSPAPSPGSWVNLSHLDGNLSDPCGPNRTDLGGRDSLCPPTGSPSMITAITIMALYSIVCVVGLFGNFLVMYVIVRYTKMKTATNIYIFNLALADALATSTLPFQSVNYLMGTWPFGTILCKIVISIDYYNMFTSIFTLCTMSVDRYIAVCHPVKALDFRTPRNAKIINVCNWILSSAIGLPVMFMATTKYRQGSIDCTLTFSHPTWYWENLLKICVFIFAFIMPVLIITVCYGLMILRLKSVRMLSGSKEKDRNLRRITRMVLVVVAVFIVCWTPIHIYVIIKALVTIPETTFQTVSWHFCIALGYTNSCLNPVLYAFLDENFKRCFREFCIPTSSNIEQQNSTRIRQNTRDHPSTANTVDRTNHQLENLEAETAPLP

Compound: CCOC(N)=O
- IC50 (Neutrophil elastase): Not Active
- IC50 (Adenosine receptor A1): Not Active
- IC50 (Mu-type opioid receptor; cho-k1): Not Active
- IC50 [1]: Not Active
- Ki [1]: Not Active
- IC50 [2]: Not Active
- Ki [2]: Not Active

Compound: COc1ccc(CN2CCNCC2)c(OC)c1OC [TRIMETAZIDINE]
- IC50 (Neutrophil elastase): Not Active
- IC50 (Adenosine receptor A1): Not Active
- IC50 (Mu-type opioid receptor; cho-k1): Not Active
- IC50 [1]: Not Active
- Ki [1]: Not Active
- IC50 [2]: Not Active
- Ki [2]: Not Active

Compound: CC(=O)O[C@H]1C[C@@H]2CC[C@@H]3[C@H](CC[C@@]4(C)[C@H]3C[C@H]([N+]3(C)CCCCC3)[C@@H]4OC(C)=O)[C@@]2(C)C[C@@H]1N1CCCCC1.[Br-] [VECURONIUM BROMIDE]
- IC50 (Neutrophil elastase): Not Active
- IC50 (Adenosine receptor A1): Not Active
- IC50 (Mu-type opioid receptor; cho-k1): Not Active
- IC50 [1]: Not Active
- Ki [1]: Not Active
- IC50 [2]: Not Active
- Ki [2]: Not Active

Compound: C[C@@H]1C[C@H]2[C@@H]3CCC4=CC(=O)C=C[C@]4(C)C3=CC[C@]2(C)[C@H]1C(=O)CN1CCN(c2cc(N3CCCC3)nc(N3CCCC3)n2)CC1 [TIRILAZAD]
- IC50 (Neutrophil elastase): Not Active
- IC50 (Adenosine receptor A1): Not Active
- IC50 (Mu-type opioid receptor; cho-k1): Not Active
- IC50 [1]: Not Active
- Ki [1]: Not Active
- IC50 [2]: Not Active
- Ki [2]: Not Active

Compound: CC(C)OC(=O)C(C)(C)Oc1ccc(C(=O)c2ccc(Cl)cc2)cc1 [FENOFIBRATE]
- IC50 (Neutrophil elastase): Not Active
- IC50 (Adenosine receptor A1): Not Active
- IC50 (Mu-type opioid receptor; cho-k1): Not Active

Compound: C[C@@H](O)[C@H]1C(=O)N2C(C(=O)O)=C(S[C@@H]3CN[C@H](C(=O)N(C)C)C3)[C@H](C)[C@H]12 [MEROPENEM]
- IC50 (Neutrophil elastase): Not Active
- IC50 (Adenosine receptor A1): Not Active
- IC50 (Mu-type opioid receptor; cho-k1): Not Active
- IC50 [1]: Not Active
- Ki [1]: Not Active
- IC50 [2]: Not Active
- Ki [2]: Not Active

Compound: CC[C@@H](CO)NC(=O)[C@@H]1C=C2c3cccc4c3c(cn4C)C[C@H]2N(C)C1 [METHYSERGIDE]
- IC50 (Neutrophil elastase): Not Active
- IC50 (Adenosine receptor A1): Not Active
- IC50 (Mu-type opioid receptor; cho-k1): Not Active

Compound: CC(C)(C)NC[C@H](O)COc1nsnc1N1CCOCC1 [TIMOLOL]
- IC50 (Neutrophil elastase): Not Active
- IC50 (Adenosine receptor A1): Not Active
- IC50 (Mu-type opioid receptor; cho-k1): Not Active
- IC50 [1]: Not Active
- Ki [1]: Not Active
- IC50 [2]: Not Active
- Ki [2]: Not Active

Compound: CCN(CC)CC#CCOC(=O)C(O)(c1ccccc1)C1CCCCC1 (stereo unspecified) [OXYBUTYNIN]
- IC50 (Neutrophil elastase): Not Active
- IC50 (Adenosine receptor A1): Not Active
- IC50 (Mu-type opioid receptor; cho-k1): Not Active

Compound: O=c1[nH]c2ccccc2n1CCCN1CCC(n2c(=O)[nH]c3cc(Cl)ccc32)CC1 [DOMPERIDONE]
- IC50 (Neutrophil elastase): Not Active
- IC50 (Adenosine receptor A1): Not Active

Compound: CC1=C(CC(=O)O)c2cc(F)ccc2/C1=C\c1ccc(S(C)(=O)=O)cc1 [EXISULIND]
- IC50 (Neutrophil elastase): Not Active
- IC50 (Adenosine receptor A1): Not Active
- IC50 (Mu-type opioid receptor; cho-k1): Not Active
- IC50 [1]: Not Active
- Ki [1]: Not Active
- IC50 [2]: Not Active
- Ki [2]: Not Active

Compound: COc1ncnc(NS(=O)(=O)c2ccc(N)cc2)c1OC [SULFADOXINE]
- IC50 (Neutrophil elastase): Not Active
- IC50 (Adenosine receptor A1): Not Active
- IC50 (Mu-type opioid receptor; cho-k1): Not Active
- IC50 [1]: Not Active
- Ki [1]: Not Active
- IC50 [2]: Not Active
- Ki [2]: Not Active

Compound: CC(=O)Nc1nnc(S(N)(=O)=O)s1 [ACETAZOLAMIDE]
- IC50 (Neutrophil elastase): Not Active
- IC50 (Adenosine receptor A1): Not Active
- IC50 (Mu-type opioid receptor; cho-k1): Not Active

Compound: CO[C@H]1C[C@@H]2CC[C@@H](C)[C@@](O)(O2)C(=O)C(=O)N2CCCC[C@H]2C(=O)O[C@H]([C@H](C)C[C@@H]2CC[C@@H](O)[C@H](OC)C2)CC(=O)[C@H](C)/C=C(\C)[C@@H](O)[C@@H](OC)C(=O)[C@H](C)C[C@H](C)/C=C/C=C/C=C/1C [SIROLIMUS]
- IC50 (Neutrophil elastase): Not Active
- IC50 (Adenosine receptor A1): Not Active
- IC50 (Mu-type opioid receptor; cho-k1): Not Active
- IC50 ([1]; read-out: IC50): 1.08 µM
- Ki ([1]; read-out: Ki): 0.371 µM
- IC50 [2]: Not Active
- Ki [2]: Not Active

Compound: OCCN1CCN(CCCN2c3ccccc3Sc3ccc(C(F)(F)F)cc32)CC1 [FLUPHENAZINE]
- IC50 (Neutrophil elastase): Not Active
- IC50 (Adenosine receptor A1): Not Active
- Ki (Mu-type opioid receptor): 8.42 µM
- IC50 (Mu-type opioid receptor; read-out: IC50): 20.7 µM

Compound: Cc1cn([C@H]2C[C@H](N=[N+]=[N-])[C@@H](CO)O2)c(=O)[nH]c1=O [ZIDOVUDINE]
- IC50 (Neutrophil elastase): Not Active
- IC50 (Adenosine receptor A1): Not Active
- IC50 (Mu-type opioid receptor; cho-k1): Not Active
- IC50 [1]: Not Active
- Ki [1]: Not Active
- IC50 [2]: Not Active
- Ki [2]: Not Active

Compound: THIMEROSAL
- IC50 (Neutrophil elastase): Not Active
- Ki (Neutrophil elastase): Not Active
- IC50 (Adenosine receptor A1): Not Active
- Ki (Adenosine receptor A1): Not Active
- IC50 [1]: Not Active
- Ki [1]: Not Active
- IC50 [2]: Not Active
- Ki [2]: Not Active
